Measured values from patent US9617256B2 (priority 2007, dated 2017).
Converted amounts (≈) assume the structure as drawn.

Experiments:
[1] = tested on: APAE006 (strain of P. aeruginosa in which all efflux pumps are inactivated); experiment: microbe, parasite or virus in culture; format: cell-based; conditions: Pseudomonas aeruginosa, read-out: MIC APAE006, P. aeruginosa, all efflux pumps inactivated
How it was run: (§1)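 Incubation: 35° C., ambient air, 18-24 h. Medium: cation-adjusted Mueller-Hinton broth with 2-fold serial dilutions of drug. Inoculum: 3×10^5–7×10^5 CFU/mL final, per CLSI microdilution method.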

[2] = tested on: AABA1060 (clinical isolate of Acinetobacter baumannii); experiment: MIC broth microdilution, AABA1060; format: cell-based; conditions: Acinetobacter baumannii, read-out: MIC AABA1060
How it was run: (§2)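 MICs come from broth microdilution in cation-adjusted Mueller-Hinton broth, final inoculum 3×10^5–7×10^5 CFU/mL, 18-24 hours at 35° C. Levofloxacin and QC strains served as assay controls.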

[3] = tested on: APAE006 in the presence of 8 micrograms per milliliter of polymyxin B nonapeptide; format: cell-based, P. aeruginosa; conditions: in the presence of 8 micrograms per milliliter of polymyxin B nonapeptide
How it was run: as §1

[4] = tested on: APAE001 (ATCC27853); experiment: MIC broth microdilution, APAE001; format: cell-based, P. aeruginosa; conditions: Pseudomonas aeruginosa, ATCC27853, read-out: MIC APAE001, APAE001 is ATCC27853
How it was run: as §2

[5] = tested on: AECO001 (ATCC25922); experiment: MIC broth microdilution, AECO001; format: cell-based, E. coli; conditions: Escherichia coli, ATCC25922, read-out: MIC AECO001
How it was run: as §2

[6] = tested on: AECO001 HSA AGP; experiment: MIC broth microdilution, AECO001 HSA AGP; format: cell-based, E. coli; conditions: Escherichia coli
Description: Bacterial isolates were cultivated from −70° C. frozen stocks by overnight passages at 35° C. in ambient air on Mueller-Hinton agar (Beckton Dickinson, Franklin Lakes, N.J.). Clinical isolates tested were obtained from various geographically diverse hospitals in the US and abroad (Focus Diagnostics, Herndon, Va. and JMI, North Liberty, Iowa). Quality control strains were from the American Type Culture Collection (ATCC; Rockville, Md.). Additional primary panel strains were generated using standard molecular biology techniques.
Minimum Inhibitory Concentrations (MICs) were determined by the broth microdilution method in accordance with the Clinical and Laboratory Standards Institute (CLSI) guidelines. In brief, organism suspensions were adjusted to a 0.5 McFarland standard to yield a final inoculum between 3×10^5 and 7×10^5 colony-forming units (CFU)/mL. Drug dilutions and inocula were made in sterile, cation adjusted Mueller-Hinton Broth (Beckton Dickinson). An inoculum volume of 100 μL was added to wells containing 100 μL of broth with 2-fold serial dilutions of drug. All inoculated microdilution trays were incubated in ambient air at 35° C. for 18-24 hours. […] Performance of the assay was monitored by the use of laboratory quality-control strains and levofloxacin, a compound with a defined MIC spectrum, in accordance with CLSI guidelines.
*AECO001 is ATCC25922, AECO063 is ATCC25922 bearing an acrAB mutation, APAE001 is ATCC27853, APAE006 is a strain of P. aeruginosa in which all efflux pumps are inactivated, APAE006+PMBN indicates MICs with the indicated strain in the presence of 8 micrograms per milliliter of polymyxin B nonapeptide, AABA1060 is a clinical isolate of Acinetobacter baumannii, ASAU001 is a laboratory strain of S. aureus (ATCC29213).

[7] = tested on: AECO063 (ATCC25922 bearing an acrAB mutation); experiment: microbe, parasite or virus in culture; format: cell-based, E. coli; conditions: Escherichia coli, ATCC25922, read-out: MIC AECO063
How it was run: as §2

[8] = tested on: ASAU001 (laboratory strain of S. aureus, ATCC29213); experiment: MIC broth microdilution, ASAU001; format: cell-based; conditions: Staphylococcus aureus, ATCC29213, read-out: MIC ASAU001
How it was run: as §2

SMILES | MIC [1] [µg/mL] | MIC [2] [µg/mL] | MIC APAE006 + PMBN [3] | MIC [4] [µg/mL] | MIC [5] [µg/mL] | MIC [6] [µg/mL] | MIC [7] [µg/mL] | MIC [8] [µg/mL]
O=C(N[C@H](C(=O)NO)c1cccs1)c1ccc(C#Cc2ccc(CN3CCOCC3)cc2)cc1 [Example 67-7] | < 2 | 2 to 16 (≈ 4.21 to 33.6 µM) | A (MIC's of 2.0 μg/mL or less = A) | 2 to 16 (≈ 4.21 to 33.6 µM) | < 2 | 2 to 16 (≈ 4.21 to 33.6 µM) | < 2 | > 64
O=C(N[C@H](C(=O)NO)c1ccsc1)c1ccc(C#Cc2ccc(CN3CCOCC3)cc2)cc1 [Example 67-8] | < 2 | 2 to 16 (≈ 4.21 to 33.6 µM) | A (MIC's of 2.0 μg/mL or less = A) | 2 to 16 (≈ 4.21 to 33.6 µM) | < 2 | 2 to 16 (≈ 4.21 to 33.6 µM) | < 2 | > 64
O=C(N[C@H](C(=O)NO)C1CCS(=O)(=O)CC1)c1ccc(C#Cc2ccc(CN3CCOCC3)cc2)cc1 [Example 67-9] | < 2 | > 64 | A (MIC's of 2.0 μg/mL or less = A) | 16 to 64 (≈ 30.4 to 122 µM) | 2 to 16 (≈ 3.8 to 30.4 µM) | 16 to 64 (≈ 30.4 to 122 µM) | < 2 | > 64
O=C(N[C@H](C(=O)NO)C1CC1)c1ccc(C#Cc2ccc(CN3CCOCC3)cc2)cc1 [Example 68-6, N—((S)-cyclopropyl-hydroxycarbamoyl-methyl)-4-(4-morpholin-4-ylmethyl-phenylethynyl)-benzamide] | < 2 | 16 to 64 (≈ 36.9 to 148 µM) | A (MIC's of 2.0 μg/mL or less = A) | 2 to 16 (≈ 4.61 to 36.9 µM) | < 2 | 2 to 16 (≈ 4.61 to 36.9 µM) | < 2 | > 64
NC[C@H](NC(=O)c1ccc(C#CC#Cc2ccc(CO)cc2)cc1)C(=O)NO [Example 82-2] | < 2 | 16 to 64 (≈ 42.4 to 170 µM) | A (MIC's of 2.0 μg/mL or less = A) | < 2 | < 2 | 16 to 64 (≈ 42.4 to 170 µM) | < 2 | 16 to 64 (≈ 42.4 to 170 µM)
C[C@@H](N)[C@H](NC(=O)c1ccc(C#CC#Cc2ccc(CO)cc2)cc1)C(=O)NO [Example 82-3] | < 2 | 2 to 16 (≈ 5.11 to 40.9 µM) | A (MIC's of 2.0 μg/mL or less = A) | < 2 | < 2 | 16 to 64 (≈ 40.9 to 164 µM) | < 2 | 16 to 64 (≈ 40.9 to 164 µM)
C[C@@H](N)[C@H](NC(=O)c1ccc(C#CC#Cc2ccccc2)cc1)C(=O)NO [Example 82-4] | < 2 | 2 to 16 (≈ 5.53 to 44.3 µM) | A (MIC's of 2.0 μg/mL or less = A) | 2 to 16 (≈ 5.53 to 44.3 µM) | < 2 | 2 to 16 (≈ 5.53 to 44.3 µM) | < 2 | 2 to 16 (≈ 5.53 to 44.3 µM)
C[C@@H](N)[C@H](NC(=O)c1ccc(C#CC#Cc2cccc(F)c2)cc1)C(=O)NO [Example 82-5] | < 2 | 2 to 16 (≈ 5.27 to 42.2 µM) | A (MIC's of 2.0 μg/mL or less = A) | < 2 | < 2 | 2 to 16 (≈ 5.27 to 42.2 µM) | < 2 | 2 to 16 (≈ 5.27 to 42.2 µM)
C[C@@H](O)[C@H](NC(=O)c1ccc(C#CC#Cc2ccc(C(F)(F)F)cc2)cc1)C(=O)NO [Example 82-6] | 2 to 16 (≈ 4.65 to 37.2 µM) | 16 to 64 (≈ 37.2 to 149 µM) | A (MIC's of 2.0 μg/mL or less = A) | 2 to 16 (≈ 4.65 to 37.2 µM) | < 2 | 2 to 16 (≈ 4.65 to 37.2 µM) | < 2 | 16 to 64 (≈ 37.2 to 149 µM)
C[C@@H](N)[C@H](NC(=O)c1ccc(C#CC#Cc2ccccc2F)cc1)C(=O)NO [Example 82-7] | < 2 | < 2 | A (MIC's of 2.0 μg/mL or less = A) | < 2 | < 2 | 2 to 16 (≈ 5.27 to 42.2 µM) | < 2 | 2 to 16 (≈ 5.27 to 42.2 µM)
C[C@@H](N)[C@H](NC(=O)c1ccc(C#CC#Cc2ccc(Cl)cc2)cc1)C(=O)NO [Example 82-8] | < 2 | > 64 | A (MIC's of 2.0 μg/mL or less = A) | 16 to 64 (≈ 40.4 to 162 µM) | < 2 | 2 to 16 (≈ 5.05 to 40.4 µM) | < 2 | > 64
C[C@@H](N)[C@H](NC(=O)c1ccc(C#CC#Cc2cccc(Cl)c2)cc1)C(=O)NO [Example 82-9] | < 2 | 2 to 16 (≈ 5.05 to 40.4 µM) | A (MIC's of 2.0 μg/mL or less = A) | 2 to 16 (≈ 5.05 to 40.4 µM) | < 2 | 2 to 16 (≈ 5.05 to 40.4 µM) | < 2 | 2 to 16 (≈ 5.05 to 40.4 µM)
C[C@@H](N)[C@H](NC(=O)c1ccc(C#CC#Cc2ccccc2Cl)cc1)C(=O)NO [Example 82-10] | < 2 | 2 to 16 (≈ 5.05 to 40.4 µM) | A (MIC's of 2.0 μg/mL or less = A) | 2 to 16 (≈ 5.05 to 40.4 µM) | < 2 | 2 to 16 (≈ 5.05 to 40.4 µM) | < 2 | 2 to 16 (≈ 5.05 to 40.4 µM)
C[C@@H](N)[C@H](NC(=O)c1ccc(C#CC#Cc2ccc(OC(F)(F)F)cc2)cc1)C(=O)NO [Example 82-11] | 2 to 16 (≈ 4.49 to 35.9 µM) | 16 to 64 (≈ 35.9 to 144 µM) | A (MIC's of 2.0 μg/mL or less = A) | 16 to 64 (≈ 35.9 to 144 µM) | 2 to 16 (≈ 4.49 to 35.9 µM) | 2 to 16 (≈ 4.49 to 35.9 µM) | < 2 | 16 to 64 (≈ 35.9 to 144 µM)
C[C@@H](N)[C@H](NC(=O)c1ccc(C#CC#Cc2ccc(F)cc2)cc1)C(=O)NO [Example 82-12] | < 2 | 2 to 16 (≈ 5.27 to 42.2 µM) | A (MIC's of 2.0 μg/mL or less = A) | 2 to 16 (≈ 5.27 to 42.2 µM) | < 2 | 2 to 16 (≈ 5.27 to 42.2 µM) | < 2 | 16 to 64 (≈ 42.2 to 169 µM)
CC(C)(O)[C@H](NC(=O)c1ccc(C#CC#Cc2ccccc2)cc1)C(=O)NO [Example 82-13] | < 2 | < 2 | A (MIC's of 2.0 μg/mL or less = A) | < 2 | < 2 | < 2 | < 2 | 16 to 64 (≈ 42.5 to 170 µM)
C[C@@H](O)[C@H](NC(=O)c1ccc(C#CC#Cc2ccc(CO)cc2)cc1)C(=O)NO [Example 82-14] | < 2 | < 2 | A (MIC's of 2.0 μg/mL or less = A) | < 2 | < 2 | 16 to 64 (≈ 40.8 to 163 µM) | < 2 | 16 to 64 (≈ 40.8 to 163 µM)
CC(C)(O)[C@H](NC(=O)c1ccc(C#CC#Cc2ccc(CO)cc2)cc1)C(=O)NO [Example 82-15] | < 2 | < 2 | A (MIC's of 2.0 μg/mL or less = A) | < 2 | < 2 | 16 to 64 (≈ 39.4 to 157 µM) | < 2 | 16 to 64 (≈ 39.4 to 157 µM)
C[C@@H](N)[C@H](NC(=O)c1ccc(C#CC#Cc2ccc(N)cc2)cc1)C(=O)NO [Example 82-16] | < 2 | < 2 | A (MIC's of 2.0 μg/mL or less = A) | < 2 | < 2 | 2 to 16 (≈ 5.31 to 42.5 µM) | < 2 | 16 to 64 (≈ 42.5 to 170 µM)
O=C(CNC1CC1)NC[C@H](NC(=O)c1ccc(C#CC#Cc2ccccc2)cc1)C(=O)NO [Example 85-1, N—[(S)-2-(2-Cyclopropylamino-acetylamino)-1-hydroxycarbamoyl-ethyl]-4-(4-phenyl-buta-1,3-diynyl)-benzamide] | < 2 | 16 to 64 (≈ 36 to 144 µM) | A (MIC's of 2.0 μg/mL or less = A) | 2 to 16 (≈ 4.5 to 36 µM) | < 2 | 2 to 16 (≈ 4.5 to 36 µM) | < 2 | 16 to 64 (≈ 36 to 144 µM)
C[C@@H](NC(=O)CNC1CC1)[C@H](NC(=O)c1ccc(C#CC#Cc2ccccc2)cc1)C(=O)NO [Example 85-2] | < 2 | 16 to 64 (≈ 34.9 to 140 µM) | A (MIC's of 2.0 μg/mL or less = A) | 2 to 16 (≈ 4.36 to 34.9 µM) | < 2 | 2 to 16 (≈ 4.36 to 34.9 µM) | < 2 | 16 to 64 (≈ 34.9 to 140 µM)
C[C@@H](N)[C@H](NC(=O)c1ccc(C#CC#Cc2ccc(CN3CCOCC3)cc2)cc1)C(=O)NO [Example 86-2] | < 2 | 2 to 16 (≈ 4.34 to 34.7 µM) | A (MIC's of 2.0 μg/mL or less = A) | 2 to 16 (≈ 4.34 to 34.7 µM) | < 2 | < 2 | < 2 | 16 to 64 (≈ 34.7 to 139 µM)
